Data published in paper PMC11521309, “A novel 4-aminoquinoline chemotype with multistage antimalarial activity and lack of cross-resistance with PfCRT and PfMDR1 mutants” (PLOS Pathogens, 2024).
Values joined by “and” are separate entries in the source; they are usually repeats but may differ in a detail not shown here. Identical values can stand only once.

Experiments:
[1] = tested on: P. berghei ookinete formation; assay: In vitro inhibition of ookinete formation (nLuc conversion assay), 24 h; type: cell-based, Plasmodium berghei; conditions: for % Inhibition of ookinete conversion: single assays
Experimental: To measure the inhibition of gamete conversion into ookinetes, a mutant luciferase-expressing P. berghei line (nLuc) was intraperitoneally injected into BALB/c mice. After 3–4 days, gametocyte-carrying blood samples were collected. In vitro compound testing was carried out by exposing 4 μL of infected blood mixed with 80 μL of culture medium (RPMI-1640 supplemented with 25 mM HEPES, 50 mg/L hypoxanthine, and 1% penicillin/streptomycin/neomycin at pH 8.3) to a range of drug concentrations for 24 hours at 21°C. Following the incubation, 20 μL of nLuc substrate (Nano-Glo Luciferase Assay System, Promega) was added to each well, and luminescence was measured in a luminometer. Increased light emission correlated with nLuc production and subsequent luciferase activity due to in vitro fertilization and ookinete conversion, as luciferase expression in this parasite line is regulated by the CTRP promoter that is ookinete-specific. Conversion inhibition was calculated as the percentage of luciferase activity of drug-exposed wells relative to untreated ones, from which IC50 values were interpolated.

[2] = tested on: Hz formation in ABS P. falciparum 3D7 parasites; assay: Cellular heme fractionation assay; type: cell-based, Plasmodium falciparum
Experimental: A heme fractionation assay was used to measure the inhibition of Hz formation in cultured ABS P. falciparum 3D7 parasites as previously described. […] Late trophozoites were harvested after 32 hours of incubation by lysing RBCs with 0.05% saponin followed by multiple washes with 1 × PBS (pH 7.5) to remove any residual traces of hemoglobin. The parasite pellet was resuspended in PBS and the total number of trophozoites isolated was quantified using flow cytometry. Contents of the trophozoite pellet were released by hypotonic lysis and sonication. After centrifugation, treatments with HEPES buffer (pH 7.4), sodium dodecyl sulfate, pyridine, and NaOH, allowed us to separate the fractions corresponding to the different heme species of interest. A microplate reader was employed to measure the UV-visible spectrum of each heme fraction as a Fe(III)heme-pyridine complex. Fractions of undigested hemoglobin, “free” heme, and Hz were quantified using a heme standard curve based on the mass of each heme-Fe species per mature trophozoite (fg/cell), obtained by dividing the total amount of each heme species by the corresponding number of parasites in that fraction as determined by flow cytometry. Statistical comparisons and analyses for trends employed Students’ t-tests (GraphPad Prism version 9).

[3] = 0.5x IC50, 32 h, single replicates
[4] = 0.5–3.0 × IC50 vs untreated control
[5] = 1x IC50, 32 h, single replicates
[6] = 2x IC50, 32 h, single replicates
[7] = 2.5x IC50, 32 h, single replicates
[8] = 3x IC50, 32 h, single replicates

## COc1cc2nccc(Nc3cccc(Oc4ccccc4)c3)c2cc1OC [LDT-623]
[1]; Log conc. (uM) 0.39794
  % Inhibition of ookinete conversion: 72.78% and 76.99% and 75.53% and 88.24% and 87.02% and 67.23% and 81.09%
[1]; Log conc. (uM) 0.69897
  % Inhibition of ookinete conversion: 88.00% and 95.67% and 86.70% and 98.41% and 98.02% and 73.84% and 94.25%
[1]; Log conc. (uM) 1
  % Inhibition of ookinete conversion: 99.93% and 99.92% and 99.83% and 99.70% and 99.35% and 98.41% and 99.32%
[1]; Log conc. (uM) -1.70927
  % Inhibition of ookinete conversion: 0.00%
[1]; Plasmodium berghei, read-out: IC50 inhibition of ookinete formation, mean, N = 7
  IC50: 1500 nM
[2]; 0.5x IC50, 32 h, Mean
  %Hb: 6.49%
  %Heme: 9.94%
  %Hemozoin: 83.57%
  Hb Fe (fg/troph): 3.40 fg/troph
  Heme Fe (fg/troph): 5.28 fg/troph
  Hemozoin Fe (fg/troph): 44.40 fg/troph
  Total Fe (fg/troph): 54.33 fg/troph
[2]; [3]
  %Hb: 5.0225% and 6.9078% and 7.3751% and 6.6526%
  %Heme: 10.3876% and 10.3966% and 9.0005% and 9.9788%
  %Hemozoin: 84.5899% and 82.6957% and 83.6245% and 83.3686%
  Hb Fe (fg/troph): 2.7844 fg/troph and 3.6098 fg/troph and 3.8007 fg/troph and 3.8647 fg/troph
  Heme Fe (fg/troph): 5.7588 fg/troph and 5.4329 fg/troph and 4.6383 fg/troph and 5.7970 fg/troph
  Hemozoin Fe (fg/troph): 46.8963 fg/troph and 43.2142 fg/troph and 43.0950 fg/troph and 48.4315 fg/troph
  Total Fe (fg/troph): 55.44 fg/troph and 52.26 fg/troph and 51.53 fg/troph and 58.09 fg/troph
[2]; [4]
  effect on Hz levels: significant concentration-dependent decreases in the levels of Hz
  effect on undigested Hb: augmented percentage of undigested Hb was observed starting at 0.5 × IC50
  effect on “free” heme: statistically significant increase in “free” heme in a concentration-dependent manner
[2]; 1x IC50, 32 h, Mean
  %Hb: 7.02%
  %Heme: 10.55%
  %Hemozoin: 82.43%
  Hb Fe (fg/troph): 3.49 fg/troph
  Heme Fe (fg/troph): 5.57 fg/troph
  Hemozoin Fe (fg/troph): 44.22 fg/troph
  Total Fe (fg/troph): 54.30 fg/troph
[2]; [5]
  %Hb: 4.1032% and 6.0183% and 9.3168% and 8.6327%
  %Heme: 11.3186% and 11.3158% and 8.7646% and 10.7959%
  %Hemozoin: 84.5783% and 82.6659% and 81.9186% and 80.5714%
  Hb Fe (fg/troph): 2.0348 fg/troph and 3.3626 fg/troph and 5.0638 fg/troph and 4.9539 fg/troph
  Heme Fe (fg/troph): 5.6130 fg/troph and 6.3225 fg/troph and 4.7637 fg/troph and 6.1953 fg/troph
  Hemozoin Fe (fg/troph): 41.9435 fg/troph and 46.1884 fg/troph and 44.5239 fg/troph and 46.2360 fg/troph
  Total Fe (fg/troph): 49.59 fg/troph and 55.87 fg/troph and 54.35 fg/troph and 57.39 fg/troph
[2]; 2x IC50, 32 h, Mean
  %Hb: 5.86%
  %Heme: 12.64%
  %Hemozoin: 81.50%
  Hb Fe (fg/troph): 3.50 fg/troph
  Heme Fe (fg/troph): 6.66 fg/troph
  Hemozoin Fe (fg/troph): 43.79 fg/troph
  Total Fe (fg/troph): 54.83 fg/troph
[2]; [6]
  %Hb: 4.9454% and 8.0340% and 6.4023% and 4.0696%
  %Heme: 13.6029% and 11.9660% and 11.4824% and 13.5021%
  %Hemozoin: 81.4516% and 80.0000% and 82.1153% and 82.4284%
  Hb Fe (fg/troph): 2.6441 fg/troph and 4.5716 fg/troph and 3.2970 fg/troph and 2.3379 fg/troph
  Heme Fe (fg/troph): 7.2727 fg/troph and 6.8090 fg/troph and 5.9132 fg/troph and 7.7566 fg/troph
  Hemozoin Fe (fg/troph): 43.5476 fg/troph and 45.5226 fg/troph and 42.2872 fg/troph and 47.3530 fg/troph
  Total Fe (fg/troph): 53.46 fg/troph and 56.90 fg/troph and 51.50 fg/troph and 57.45 fg/troph
[2]; 2.5x IC50, 32 h, Mean
  %Hb: 6.89%
  %Heme: 13.61%
  %Hemozoin: 79.50%
  Hb Fe (fg/troph): 3.48 fg/troph
  Heme Fe (fg/troph): 7.40 fg/troph
  Hemozoin Fe (fg/troph): 43.37 fg/troph
  Total Fe (fg/troph): 54.23 fg/troph
[2]; [7]
  %Hb: 6.2660% and 6.4635% and 6.5388% and 8.2899%
  %Heme: 15.0745% and 13.6837% and 12.1024% and 13.5701%
  %Hemozoin: 78.6596% and 79.8529% and 81.3587% and 78.1400%
  Hb Fe (fg/troph): 3.4040 fg/troph and 3.6534 fg/troph and 3.3950 fg/troph and 4.4889 fg/troph
  Heme Fe (fg/troph): 8.1894 fg/troph and 7.7345 fg/troph and 6.2837 fg/troph and 7.3481 fg/troph
  Hemozoin Fe (fg/troph): 42.7326 fg/troph and 45.1360 fg/troph and 42.2421 fg/troph and 42.3122 fg/troph
  Total Fe (fg/troph): 54.33 fg/troph and 56.52 fg/troph and 51.92 fg/troph and 54.15 fg/troph
[2]; 3x IC50, 32 h, Mean
  %Hb: 8.06%
  %Heme: 18.59%
  %Hemozoin: 73.35%
  Hb Fe (fg/troph): 4.13 fg/troph
  Heme Fe (fg/troph): 9.47 fg/troph
  Hemozoin Fe (fg/troph): 38.59 fg/troph
  Total Fe (fg/troph): 52.57 fg/troph
[2]; [8]
  %Hb: 7.5148% and 8.7626% and 7.4537% and 8.4952%
  %Heme: 20.9692% and 17.6208% and 15.9272% and 19.8532%
  %Hemozoin: 71.5161% and 73.6166% and 76.6190% and 71.6515%
  Hb Fe (fg/troph): 3.8296 fg/troph and 4.6352 fg/troph and 3.9291 fg/troph and 4.5643 fg/troph
  Heme Fe (fg/troph): 10.6861 fg/troph and 9.3209 fg/troph and 8.3957 fg/troph and 10.6667 fg/troph
  Hemozoin Fe (fg/troph): 36.4452 fg/troph and 38.9409 fg/troph and 40.3879 fg/troph and 38.4969 fg/troph
  Total Fe (fg/troph): 50.96 fg/troph and 52.90 fg/troph and 52.71 fg/troph and 53.73 fg/troph
